The target in the assay is cAMP-specific 3',5'-cyclic phosphodiesterase 4B (Homo sapiens, UniProt Q07343). Briefly: In vitro PDE4B Enzyme Activity Detection Assay. As to the method:
1. Experimental MaterialsName Brand Cat No.PDE4B1 enzyme BPS 60041Trequinsin TOCRIS 2337/10IMAP FP IPP Explorer Kit Molecular Device R8124FAM-cAMP Molecular Device R7506OptiPlate -384 F PerkinElmer 6007279black assay plate 384 well Echo plate Labcyte PP-02002. Experimental StepsFirst, a stock solution of the compound at a concentration of 10 mM was prepared in a test tube with 90% DMSO (10% water), and it was used to prepare a series of dilutions with a dilution factor of 1:5 and final concentrations starting from 100 μM to as low as 0.05 nM. 0.2 μl of the compound solution was transferred into a 384-well reaction plate, and 0.2 μl of 100% DMSO was transferred into both the negative and positive controls. Then, 10 μl of 2 PDE4B1 enzyme solution (making a final concentration of 0.04 nM) was added to each well, and 10 μl of 1 reaction buffer instead of the enzyme solution was added to the zero enzyme activity control wells. The plate was centrifuged at 1,000 rpm for 1 min and incubated at room temperature for 15 min. […] After the incubation, the RLU data were read and the inhibition rate was calculated. The IC50 value was calculated from the concentration-inhibition fitted curve, wherein the maximum value refers to the reading of the DMSO control and the minimum value refers to the reading of the zero enzyme activity control.

cAMP-specific 3',5'-cyclic phosphodiesterase 4B, sequence (Q07343 whole entry): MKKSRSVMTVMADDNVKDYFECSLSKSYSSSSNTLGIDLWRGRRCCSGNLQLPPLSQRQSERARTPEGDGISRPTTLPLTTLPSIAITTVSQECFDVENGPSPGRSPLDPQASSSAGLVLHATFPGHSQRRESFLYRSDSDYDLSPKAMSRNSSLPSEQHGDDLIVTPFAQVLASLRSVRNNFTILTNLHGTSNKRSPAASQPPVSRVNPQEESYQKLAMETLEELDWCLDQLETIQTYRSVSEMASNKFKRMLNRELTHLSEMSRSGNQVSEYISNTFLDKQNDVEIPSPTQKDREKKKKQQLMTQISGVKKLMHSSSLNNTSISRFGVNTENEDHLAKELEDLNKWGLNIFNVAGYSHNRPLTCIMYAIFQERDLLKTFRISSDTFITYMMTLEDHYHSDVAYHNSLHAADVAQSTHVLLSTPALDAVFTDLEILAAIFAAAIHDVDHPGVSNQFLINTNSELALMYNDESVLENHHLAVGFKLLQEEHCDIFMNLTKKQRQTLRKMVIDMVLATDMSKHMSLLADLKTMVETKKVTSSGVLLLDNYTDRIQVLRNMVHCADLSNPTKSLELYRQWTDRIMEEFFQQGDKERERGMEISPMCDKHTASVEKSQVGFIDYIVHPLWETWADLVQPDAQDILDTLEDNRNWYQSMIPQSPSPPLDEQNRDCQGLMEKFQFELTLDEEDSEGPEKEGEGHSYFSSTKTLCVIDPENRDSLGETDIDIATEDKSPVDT

As a reminder, the IC50 is the midpoint of a concentration-inhibition curve. In the case of `COc1ccc(-c2cncc([C@H]3COB(O)C3)n2)c2c1OC(C)(C)CC2` [US20240083921, Compound 11-2], the IC50 stood at 3.62 nM.
Next, `COc1ccc(-c2cncc(C3COB(O)C3)c2)c2c1OC(C)(C)CO2` (configuration not stated) [US20240083921, Compound 8]: 0.22 nM.

The record behind these values is BindingDB's records for patent US20240083921 (Reistone Biopharma Company, 2024).
